What all share (test): inhibition of tumour cell growth, NCI panel, 48 h
For assay [1], the system named is MDA-MB-231 breast.
The subject of assay [2] is HCT-116 colon.
Assay [3] relates to HCC-2998 colon.
For assay [4], the system named is OVCAR-3 ovarian.
Assay [5] relates to A498 renal.
The test system of assay [6] is OVCAR-5 ovarian.
The subject of assay [7] is CCRF-CEM leukemia.
The subject of assay [8] is HOP-62 NSCLC.
Assay [9] concerns MALME-3M melanoma.
In assay [10] the test system is SNB-19 CNS.

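48-hour exposure; five concentrations; linearly interpolated endpoints. The concentration for 50% growth inhibition is given as GI50. TGI denotes the concentration required for complete inhibition of growth.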

With `CCN(CC)c1ccc(C=C2C(=O)NC(=S)NC2=O)cc1`, the GI50 was 3.49 µM in assay [1]; 3.34 µM in assay [2]; 1.99 µM in [3]; 3.15 µM in assay [4]; 3.29 µM in assay [5]; 11.9 µM in assay [6]. In addition, the GI50 was 2.12 µM in assay [7], 5.7 µM in assay [8], 2.98 µM in assay [9] and 3.55 µM in [10]. Moreover, the TGI is 10.6 µM in [1]; 8.98 µM in assay [2]; 3.73 µM in assay [3]; 8.68 µM in assay [4]; 11.3 µM in assay [5]; 26.5 µM in assay [6]. Besides, the TGI in [7] stood at 6.89 µM; in assay [8], 19.1 µM; in assay [9] it was 7.49 µM; in assay [10], 13.8 µM.
For the molecule `CCN(CC)CCCC(C)Nc1ccnc2cc(OC)ccc12` (stereo not given), the GI50 is 22.5 µM in assay [1]; 29.2 µM in assay [2]; 14.7 µM in assay [3]; 23.7 µM in [4]; 35.3 µM in assay [5]; 21.2 µM in [6]. The GI50 in [7] was 18.1 µM; in assay [8], 21.2 µM; in assay [9], 22.1 µM; in assay [10] it was 22.4 µM. For the same molecule, the TGI in assay [1] is 54.3 µM; in assay [2], 46 µM; in assay [3], 28.4 µM; in [4] it was 67.5 µM; in assay [5] it was greater than 100 µM; in assay [6], 50.2 µM. Besides, the TGI was determined as 42.3 µM in assay [7], 50.9 µM in [8], 50.2 µM in assay [9] and 53.3 µM in assay [10].
`NC1=Nc2cc(OCCCCN3Cc4ccccc4C3)c(OCC3CC3)cc2C12CCCC2`: the GI50 was 1.55 µM in [1]; 1.2 µM in [2]; 1.57 µM in [3]; 1.49 µM in assay [4]; 0.951 µM in assay [5]; 2.3 µM in assay [6]. Besides, the GI50 is 2.48 µM in assay [7], 1.63 µM in assay [8], 1.63 µM in assay [9] and 3.28 µM in [10]. For the same molecule, the TGI in [1] worked out at 3.02 µM; in [2], 2.56 µM; in [3], 3.07 µM; in assay [4], 3.16 µM; in [5], 4.91 µM; in assay [6], 6.4 µM. For the same molecule, the TGI in assay [7] worked out at 9.5 µM; in assay [8], 3.39 µM; in assay [9], 3.12 µM; in assay [10], 12.4 µM.
For `CC1(C)CC[C@]2(C(=O)O)CC[C@]3(C)C(=CC[C@@H]4[C@@]5(C)C/C(=C/c6cccnc6)[C@H](O)C(C)(C)[C@@H]5CC[C@]43C)[C@@H]2C1`, the GI50 in [1] was 14.9 µM; in [2] it was 5.12 µM; in assay [3] it was 11.4 µM; in [4] it was 7.08 µM; in assay [5], greater than 100 µM; in assay [6] it was 11.2 µM. Further, the GI50 is 2.88 µM in assay [7], 13 µM in assay [8], 13.4 µM in [9] and 5.55 µM in [10]. Besides, the TGI is 57.3 µM in assay [1]; 22.4 µM in assay [2]; 54.4 µM in [3]; 25.6 µM in assay [4]; greater than 100 µM in assay [5]; 44 µM in assay [6]. The TGI in assay [7] was 18.5 µM; in assay [8], greater than 100 µM; in [9], 36.2 µM; in assay [10], greater than 100 µM.
For `N#CSc1c[nH]c2cccc(/C=C/C(=O)/C=C(O)/C=C/c3cccc4[nH]cc(SC#N)c34)c12`, the GI50 in [1] is 0.553 µM; in [2] it was 0.109 µM; in assay [3] it was 1.2 µM; in assay [4], 0.225 µM; in assay [5], 1.03 µM; in assay [6], 0.714 µM. Further, the GI50 in assay [7] was 0.159 µM; in [8], 1.15 µM; in [9] it was 0.52 µM; in [10], 0.649 µM. The TGI in [1] stood at 1.21 µM; in assay [2], 0.421 µM; in assay [3] it was 4.56 µM; in assay [4], 1.09 µM; in [5] it was 4.27 µM; in assay [6] it was 2.04 µM. Moreover, the TGI in [7] is 6.47 µM; in [8], 4.35 µM; in assay [9] it was 1.07 µM; in assay [10] it was 3.2 µM.
`CC1(C)N=C(N)N=C(N)N1c1cccc(CC(=O)Nc2ccccc2)c1`: the GI50 in assay [1] is greater than 100 µM; in assay [2], 4.28 µM; in [3], 24 µM; in [4], 32.1 µM; in [5], 22.8 µM; in assay [6] it was greater than 100 µM. Moreover, the GI50 was 18.2 µM in assay [7], 53.4 µM in [8], 58.6 µM in assay [9] and 39.7 µM in assay [10]. Besides, the TGI in [1], in assay [2], in [3], in assay [4], in assay [5] and in assay [6] was greater than 100 µM throughout. For the same molecule, the TGI in assay [7], in assay [8], in assay [9] and in assay [10] was greater than 100 µM in each case.
With `CC(C)c1c(C(=O)Nc2ccccc2)c(-c2ccccc2)c(-c2ccc(F)cc2)n1CC[C@@H](O)C[C@@H](O)CC(=O)O`, the GI50 in [1] is 1.61 µM; in [2] it was 10.1 µM; in assay [3], 27.4 µM; in [4], 33.1 µM; in [5], 0.516 µM; in assay [6], 57.2 µM. The GI50 is 21.4 µM in assay [7], 36 µM in assay [8], 52.8 µM in assay [9] and 10.5 µM in [10]. Also, the TGI was 6.63 µM in [1]; greater than 100 µM in assay [2]; greater than 71.5 µM in assay [3]; greater than 100 µM in [4]; 4.52 µM in [5]; greater than 100 µM in [6]. The TGI in assay [7], in assay [8], in assay [9] and in assay [10] was greater than 100 µM each time.

The record behind these values is PubChem BioAssay (NCI).
